Data from publication PMC8307938, “The Lysozyme Inhibitor Thionine Acetate Is Also an Inhibitor of the Soluble Lytic Transglycosylase Slt35 from Escherichia coli” (Molecules, 2021).

What was measured:
[1] = target: T1, Slt35 (Escherichia coli, UniProt P41052); test: intrinsic fluorescence quenching titration (also turbidimetric inhibition assay, IC50 […]); format: binding
T1 construct: gene mltB; N-terminal His-tag
T1 sequence (P41052 19-361): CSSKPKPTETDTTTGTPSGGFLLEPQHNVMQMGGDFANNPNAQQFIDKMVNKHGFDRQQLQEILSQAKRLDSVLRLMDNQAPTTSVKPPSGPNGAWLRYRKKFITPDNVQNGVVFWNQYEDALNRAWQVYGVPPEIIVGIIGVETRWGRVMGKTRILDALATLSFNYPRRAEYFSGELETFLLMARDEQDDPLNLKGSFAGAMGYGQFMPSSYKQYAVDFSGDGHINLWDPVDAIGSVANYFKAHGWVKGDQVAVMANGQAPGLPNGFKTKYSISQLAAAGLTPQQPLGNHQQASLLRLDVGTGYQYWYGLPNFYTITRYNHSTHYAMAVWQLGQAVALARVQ

[2] = target: T2, hen egg white lysozyme (Gallus gallus, UniProt P00698); test: as above; format: binding
T2 construct: gene LYZ

[3] = target: Asp52 (UniProt position 70, TDGSTDYGILQ); test: NMR; details: not stated (presumably free, folded enzyme); cited from earlier work
[4] = target: Glu35 (UniProt position 53, CAAKFESNFNT); test: NMR; details: not stated (presumably free, folded enzyme); cited from earlier work

T2 sequence (P00698 19-147): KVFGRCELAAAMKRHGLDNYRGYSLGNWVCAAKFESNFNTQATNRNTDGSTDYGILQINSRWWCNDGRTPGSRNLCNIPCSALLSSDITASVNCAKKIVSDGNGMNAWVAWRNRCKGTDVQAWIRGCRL

Compound | Kd [1] [µM] | Kd [2] [µM] | pKa [3] | pKa [4]
Nc1ccc2nc3ccc(N)cc3[s+]c2c1 [thionine acetate] | 17.1 ± 1 | 18.6 ± 1.2 |  | 
Hen egg white lysozyme (lysozyme C) (Gallus gallus) |  |  | 3.7 | 6.2
